{"source": "patent US7855206B2", "about": "“Tricyclic heteroaromatic compounds as dipeptidyl peptidase-IV inhibitors for the treatment or prevention of diabetes” (Merck Sharp & Dohme Corp., priority 2006, dated 2010)", "origin": "cited, not measured here", "key": {"[1]": {"test_system": "GRF degradation in plasma"}, "hematopoiesis in mouse": {"test_system": "hematopoiesis in mouse", "conditions": "cyclophosphamide-induced neutropenia"}, "[2]": {"test_system": "cardiac allograft in rats", "conditions": "doubled from day 7"}}}
{"smiles": "CC[C@H](C)[C@H](N)C(=O)N1CCC[C@H]1C(=O)N[C@H](C(=O)O)[C@@H](C)CC", "note": "[diprotin A]", "values": [{"measurement": "effect on degradation of GRF to GRF[3-44]", "setting": "[1]", "result": "prevented"}]}
{"smiles": "CC(C)[C@H](N)C(=O)N1CCC[C@H]1B(O)O", "note": "[Val-Boro-Pro]", "values": [{"measurement": "effect on hematopoiesis", "setting": "hematopoiesis in mouse", "result": "stimulated hematopoiesis"}]}
{"smiles": "CC(C)N1CCC(c2ccccc2)(c2ccccc2)CC1", "note": "[Prodipine, Pro-Pro-diphenyl-phosphonate]", "values": [{"measurement": "cardiac allograft survival", "setting": "[2]", "result": 14, "unit": "day"}]}
